Data taken from patent US11696895B2, “Fine particle coating (drug-containing hollow particle and method for manufacturing same)” (Sumitomo Pharma Co., Ltd., priority 2017, dated 2023).

How the values were obtained:
[1] = Dissolution test (paddle method, revised 16th Japanese Pharmacopoeia), HPLC; format: physicochemical; details: 50% dissolution time after coating / before coating (uncoated nucleus)
Protocol: Dissolution tests were conducted using the tablets manufactured in Comparative Example 2 and Example 2. Water of 37° C./900 ML was used as the test solution for measurement at a number of rotations of 50 RPM based on the paddle method of a dissolution test method in the revised 16th Japanese Pharmacopoeia. The measurement times were 10, 15, 30, 45, 60, 90, 120, 360, 720, 1080, and 1440. The sampling solution was filtered and measured by HPLC to calculate the dissolution rate.
<HPLC Measurement Conditions> • Detector: ultraviolet visible spectrophotometer • Measurement wavelength: 285 NM • Column: WATERS ACQUITY UPLC C18 [2.1 MM Φ×30 MM] • Colum temperature: 40° C. • Amount of flow: 0.5 ML/MIN • Amount injected: […] • Sample cooler: 25° C. • Syringe cleansing solution: water/acetonitrile mixture=1/1 • Mobile phase: water/acetonitrile mixture=4/1
A dissolution test was conducted using the particles manufactured in Example 4 and particles manufactured in Comparative Example 1. The test conditions were the same as Test Example 1.
A dissolution test was conducted using the coated component of interest-containing hollow particles manufactured in Example 5. The test conditions were the same as Test Example 1. […] The dissolution time was extended by a factor of 2 or greater. Improvement in the ability to control release of macromolecules constituting nuclear particles was confirmed for all coated component of interest-containing hollow particles using water insoluble particles as coatable microparticles.
A dissolution test was conducted using the particles manufactured in Example 7-2 and tablets manufactured in Example 8-1 and Comparative Examples 8-1 and 8-2. The test conditions were the same as in Test Example 1.
A dissolution test was conducted using the particles manufactured in Example 11 and Comparative Example 11. The test conditions were the same as Test Example 1.
A dissolution test was conducted using the particles manufactured in Comparative Example 12B. The test conditions were the same as Test Example 1.

[2] = Particle size distribution (laser diffraction, volume based); format: physicochemical; details: Table 2-2 particle sizes
Protocol: As used herein, “mean particle size” refers to cumulative 50% point of particle size D50 in volume based measurement of powder particles. Such a mean particle size is measured based on volume with a laser diffraction particle size distribution analyzer (e.g., Powrex Corp: […] VIEWER, Shimadzu Corp: SALD-3000J, or […]: HELOS & RODOS).
The particle size distribution of components of interest, macromolecules, other additives, mixed powder of components of interest and other additives, resulting coated component of interest-containing hollow particles, and coatable microparticles was measured based on volume with a laser diffraction particle size distribution analyzer (e.g., Powrex Corp: […] VIEWER or […]: HELOS & RODOS).

| SMILES | Ratio of 50% dissolution time with respect to nucleus (JP 1st) [1] | D10 [2] [µm] | D50 [2] [µm] | D90 [2] [µm] |
| --- | --- | --- | --- | --- |
| Cn1c(=O)c2c(ncn2C)n(C)c1=O [Compound F, 1,3,7-TRIMETHYLPURINE-2,6-DIONE] | ≥ 235 |  |  |  |
| CC(=O)Nc1ccc(O)cc1 [Compound E, N-(4-HYDROXYPHENYL)ACETAMIDE] | ≥ 21 |  |  |  |
| COc1cc(N)c(Cl)cc1C(=O)NC[C@H]1CN(CC2CCN(C(=O)CO)CC2)CCO1 [Compound D] | ≥ 63 |  |  |  |
| NS(=O)(=O)Cc1noc2ccccc12 [Compound A, 1,2-BENZISOXAZOLE-3-METHANESULFONAMIDE] |  | 0.73 | 1.99 | 5.16 |
